One series deals with B16 cells. Briefly: Caging of CPP activity via reversible electrostatic interactions with polyanions, flow cytometry. It counts as cell-based. To be noted: for mean fluorescence intensity of HPMA-CPP-FITC after pre-treatment with polyanion (masking of CPP activity): polyanion mixed with HPMA-CPP-FITC for 10 min, versus conjugate alone. The procedure: FIG. 7A-FIG. 7D depict FACS analysis results of B-16 cells incubated with HPMA-CPP-FITC conjugate mixed with different polyanions (Hep, FI, PGA, HA, P-GG, LMWH, Amb) for 10 min, and then added to B16-cell monolayers. Control cells were treated with HPMA-CPP-FITC conjugate only. FIG. 7A depicts results of B-16 cells incubated with HPMA-CPP-FITC conjugate mixed with Hep or FI. FIG. 7B depicts results of B-16 cells incubated with HPMA-CPP-FITC conjugate mixed with PGA or HA. FIG. 7C depicts results of B-16 cells incubated with HPMA-CPP-FITC conjugate mixed with P-GG or LMWH. FIG. 7D depicts results of B-16 cells incubated with HPMA-CPP-FITC conjugate mixed with Amb.
FIG. 8A-FIG. 8D depict FACS analysis results of stability testing of HPMA-CPP-FITC polyanion complexes incubated with B-16 cells at different time points. FIG. 8A depicts results of B-16 cells incubated with a complex of HPMA-CPP-FITC and the polyanion Hep. FIG. 8B depicts results of B-16 cells incubated with a complex of HPMA-CPP-FITC and the polyanion FI. FIG. 8C depicts results of B-16 cells incubated with a complex of HPMA-CPP-FITC and the polyanion LMWH. FIG. 8D depicts results of B-16 cells incubated with a complex of HPMA-CPP-FITC and the polyanion Amb.
FIG. 9A-FIG. 9D depict the reversible masking of CPP activity by polyanion complexes via the addition of protamine. FIG. 9A depicts the reversible masking of CCP activity by polyanion complexes comprising the polyanion fucoidan via the addition or protamine. FIG. 9B depicts the reversible masking of CCP activity by polyanion complexes comprising the polyanion LMWH via the addition or protamine. FIG. 9C depicts the reversible masking of CCP activity by polyanion complexes comprising the polyanion Heparin via the addition or protamine. FIG. 9D depicts the reversible masking of CCP activity by polyanion complexes comprising the polyanion P-GG-OH via the addition or protamine.
FIG. 10 depicts FACS analysis results of polyanion release from HPMA-CPP-FITC complexes by protamine was at the following order: LMWH>P-GG100%>Fl>Hep.
HPMA-CPP-FITC conjugate was mixed with various polyanions such as Polyglutamic acid (PGA); Fucoidan (FI); Heparin sulfate (Hep) Hyaluronic acid (HA); Low molecular weight heparin (LMWH), Amberlite IR120 (Amb) or Polyglycylglycine (P-GG) at a weight ratio of 3:1 or 5:1 in PBS. The solutions were left for 10 min at room temperature to allow HPMA-CPP-FITC-polyanion complex formation, and then added to B16 cell monolayers in growth medium The reversibility of masking the CPP activity in complexes was assessed following the addition of the counter polycation, protamine to the incubation medium. B16 cells were treated with HPMA-CPP-FITC-polyanion complexes for 10 min, and then the counter polycation protamine (4.7 KDa, 10-50 μg/ml, at the same weight ratio of HPMA conjugate) was added to the cells. Control cells were treated with HPMA-CPP-FITC-polyanion complexes without protamin. After 1 h, the cells were washed with PBS, harvested with trypsin and the cell associated fluorescence was analyzed by flow cytometry.
HPMA-CPP-FITC conjugate was mixed with different polyanions (Hep, FI, PGA, HA, P-GG, LMWH, Amb) and then added to B16-cell monolayers and compared to control cells treated with HPMA-CPP-FITC conjugate alone (FIGS. 7A-7D).
The masking of CPP activity by the polyanion complexes was readily reversible following the addition of the polycation, protamine (4.7 KD) (FIGS. 9A-9D). Greater intensity is readily seen in protamine treated (black lines) versus untreated (gray lines) samples.
The efficiency of polyanion release from HPMA-CPP-FITC complexes by protamine was at the following order: LMWH>P-GG100%>FI>Hep (corresponding to outermost versus innermost graphs) (FIG. 10).
A general note: In flow cytometry, cells or beads pass a laser one at a time.

In a further series the test system is PC-3 cells. Briefly: Light-mediated cytotoxicity, MTT assay, illumination time and dose dependence. As to conditions: 80 μM dose (or equivalent dose of M-(cCPP)-KLAK), 15 min of light illumination. It is filed as cell-based. The protocol:
FIG. 6A depicts illumination time-dependence and dose-dependence of the viability of PC-3 cells incubated with 80 μM (solid blue), 40 μM (dashed blue), 20 μM (dots blue) M-(cCPP)-KLAK (KLAK equiv), 80 μM KLAK (solid green), and 80 μM M-(cCPP) (solid red), as determined by MIT assay. The results presented are the average of 3 independent experiments, in duplicates. Untreated control cells corresponded to 100% viability. FIG. 6B depicts light-induced cell cytotoxicity of polymer-KLAK conjugates and free KLAK against various cell-types including A431 cells (top left graph), PC-3 cells (top right graph), 3LL cells (bottom left graph) and SW480 cells (bottom right graph). Cells were incubated with 60 μM KLAK equivalent M-(cCPP)-KLAK (dark column), M-(cCPP) (gray column) or 60 μM KLAK (white column) and were illuminated immediately with UV light (365 nm) for 8 minutes followed by 2 hours incubation at 37° C. Cell viability was analyzed by MIT assay.
The cytotoxicity of M-cCPP-KLAK, M-cCPP and o(KIAKLAK) (SEQ ID NO: 5)2, was assessed using a modified 3-(4,5-dimethylthiazol-2-yl)-2,5-diphenyltetrazolinium bromide (MTT). All concentrations of KLAK-HPMA copolymers used for these experiments are expressed in KLAK equivalents. All solutions were sterilized by filtering through a 0.2-μm membrane filter. […] The absorbance of each sample was measured at 570 nm. […]

Series [1] can be described thus: Uncaging kinetics of cCPP under UV illumination, HPLC. To be noted: cCPP 200 μM, 8 minutes UV illumination (700 μW/cm2; λ=365 nm), HPLC-UV 230 nm. It is filed as physicochemical. The protocol:
FIG. 2 depicts the uncaging kinetics of cCPP as a function of light illumination time (365 nm) as determined with HPLC.
Uncaging kinetics of cCPP. cCPP (200 μM) was dissolved in 100 μL MOPS buffer at pH=7.4 and exposed to UV light illumination (UV lamp 6 W; =365 nm). Aliquots (30 μL) were removed at various time points, immediately kept frozen, in dark until analyzed by HPLC. The molar fraction of cCPP was calculated from its HPLC peak area.
CPP with 3 Mtt-protected Lys, Ac-KRRMK^MttWK^MttK^Mtt (KRRMKWKXK SEQ ID NO: 6) was synthesized on a solid phase via Fmoc chemistry on a MBHA Resin. CPP was then modified to include 3 photolabile protecting groups on Lys side chains to give the caged CPP (cCPP), Ac-KRRMK^NvocWK^NvocK^Nvoc. The identity and purity (>90%) were determined by HPLC and MALDI-TOF mass spectrometer. In order to study the uncaging kinetics of the peptide, a solution of cCPP (200 μM) was exposed to UV light illumination (700 μW/cm2; λ=365 nm). Aliquots were removed at various time points, and then evaluated by high performance liquid chromatography with UV detection (HPLC-UV) at 230 nm. The molar fraction of cCPP was calculated from its HPLC peak (FIG. 2). 8 minutes of illumination were sufficient to attain >80% of uncaged CPP, and thus further experiments were therefore undertaken with 8-10 min of light illumination. […]

On to Low molecular weight heparin [LMWH], for which, in the series on B16 cells, the “mean fluorescence intensity of HPMA-CPP-FITC after pre-treatment with polyanion (masking of CPP activity)” value (shortened to “mean fluorescence intensity”) is listed as “significantly reduced” and the “order of efficiency of polyanion release from HPMA-CPP-FITC complexes by protamine” value (“order of efficiency of polyanion release” for short) is “LMWH>P-GG100%>FI>Hep”.

On to Heparin sulfate, for which, in the series on B16 cells, the “mean fluorescence intensity” value is reported as “significantly reduced” and the “order of efficiency of polyanion release” value is “LMWH>P-GG100%>FI>Hep”.

On to Levulinic acid-D(KLAKLAK)2, for which the “toxicity towards PC-3 cells” value in the series with PC-3 cells is on record as “no significant toxicity”.

Turning to Ac-KRRMK^NvocWK^NvocK^Nvoc [cCPP], the “uncaged CPP attained” value in series [1] was > 80%.

Regarding Fucoidan [FI], in the series with B16 cells, the “mean fluorescence intensity” value is “significantly reduced” and the “order of efficiency of polyanion release” value was “LMWH>P-GG100%>FI>Hep”.

The values are drawn from US10947275B2, “Caged cell penetrating peptide-polymer conjugates for diagnostic and therapeutic applications” (Ben-Gurion University of the Negev Research and Development …, priority 2010, dated 2021).
